From the kinase profiling compilation of Christmann-Franck et al. (2016)

Columns and labels:
Assay in all cases: radiometric filter-binding kinase assay
PHKG1 (human) = PHKG1 (human) (UniProt Q16816)
ROCK2 (rat) = conditions: accession and sequence are those of the human protein
TAOK1 (human) = TAOK1 (human) (UniProt Q7L7X3)
YES1 (human) = YES1 (human) (UniProt P07947)
BRSK2 (human) = BRSK2 (human) (UniProt Q8IWQ3)
MAPK8 (human) = MAPK8 (human) (UniProt P45983)
HIPK1 (human) = HIPK1 (human) (UniProt Q86Z02)
CAMKK2 (human) = CAMKK2 (human) (UniProt Q96RR4)
SRPK1 (human) = SRPK1 (human) (UniProt Q96SB4)
DAPK1 (human) = DAPK1 (human) (UniProt P53355)
TBK1 (human) = TBK1 (human) (UniProt Q9UHD2)
CHEK1 (human) = CHEK1 (human) (UniProt O14757)
MINK1 (human) = MINK1 (human) (UniProt Q8N4C8)
PIM3 (human) = PIM3 (human) (UniProt Q86V86)
GCK (human) = GCK (human) (UniProt Q12851)
STK3 (human) = STK3 (human) (UniProt Q13188)
IGF1R (human) = IGF1R (human) (UniProt P08069)
AURKB (human) = AURKB (human) (UniProt Q96GD4)
LCK (mouse) = conditions: accession and sequence are those of the human protein
[1] = test system: SGK1 (human), O00141 [S422D]
CSNK2A1 (human) = CSNK2A1 (human) (UniProt P68400)
MAPK11 (human) = MAPK11 (human) (UniProt Q15759)
MAPK13 (human) = MAPK13 (human) (UniProt O15264)
DYRK1A (human) = DYRK1A (human) (UniProt Q13627)
HIPK2 (human) = HIPK2 (human) (UniProt Q9H2X6)
DYRK3 (human) = DYRK3 (human) (UniProt O43781)
MKNK1 (human) = MKNK1 (human) (UniProt Q9BUB5)
MAPK10 (human) = MAPK10 (human) (UniProt P53779)
MARK3 (human) = MARK3 (human) (UniProt P27448)
CaMK1 (human) = CaMK1 (human) (UniProt Q14012)
FGFR1 (human) = FGFR1 (human) (UniProt P11362)
[2] = test system: PAK2 (human), Q13177 [T402E]
CLK2 (human) = CLK2 (human) (UniProt P49760)
JAK2 JH1 JH2 (human) = JAK2 JH1 JH2 (human) (UniProt O60674)
EPHB2 (human) = EPHB2 (human) (UniProt P29323)

Chain of JAK2 JH1 JH2 (human) (O60674 whole entry, looked up): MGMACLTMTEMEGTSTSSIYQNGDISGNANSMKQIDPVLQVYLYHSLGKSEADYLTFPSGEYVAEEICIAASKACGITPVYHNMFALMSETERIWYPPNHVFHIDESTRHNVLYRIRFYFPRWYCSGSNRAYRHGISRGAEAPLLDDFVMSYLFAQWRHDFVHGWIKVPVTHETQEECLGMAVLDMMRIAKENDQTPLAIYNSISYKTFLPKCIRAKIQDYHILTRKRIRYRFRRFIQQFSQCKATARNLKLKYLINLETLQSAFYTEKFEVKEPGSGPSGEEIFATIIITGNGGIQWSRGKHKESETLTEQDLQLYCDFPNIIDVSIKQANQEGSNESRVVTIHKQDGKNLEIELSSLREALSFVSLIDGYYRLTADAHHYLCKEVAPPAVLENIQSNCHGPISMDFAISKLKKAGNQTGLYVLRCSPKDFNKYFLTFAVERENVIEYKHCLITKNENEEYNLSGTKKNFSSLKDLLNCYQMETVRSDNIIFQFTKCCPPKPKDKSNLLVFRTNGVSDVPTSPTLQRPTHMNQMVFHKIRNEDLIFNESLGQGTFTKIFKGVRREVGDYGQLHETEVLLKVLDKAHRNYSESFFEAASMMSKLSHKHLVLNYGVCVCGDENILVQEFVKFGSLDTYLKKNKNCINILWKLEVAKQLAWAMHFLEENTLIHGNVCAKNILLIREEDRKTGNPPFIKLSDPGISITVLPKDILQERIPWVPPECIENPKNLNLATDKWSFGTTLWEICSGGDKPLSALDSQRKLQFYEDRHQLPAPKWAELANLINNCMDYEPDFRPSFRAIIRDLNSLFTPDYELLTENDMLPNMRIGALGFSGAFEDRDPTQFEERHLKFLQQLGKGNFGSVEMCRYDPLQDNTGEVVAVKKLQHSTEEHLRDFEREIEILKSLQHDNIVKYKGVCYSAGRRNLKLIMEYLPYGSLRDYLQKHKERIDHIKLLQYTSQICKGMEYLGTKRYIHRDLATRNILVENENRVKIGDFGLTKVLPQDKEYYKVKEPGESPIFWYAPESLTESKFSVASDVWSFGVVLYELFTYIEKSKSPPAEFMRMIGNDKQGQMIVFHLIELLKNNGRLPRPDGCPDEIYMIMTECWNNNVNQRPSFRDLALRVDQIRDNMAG
Chain of STK3 (human) (Q13188 whole entry, looked up): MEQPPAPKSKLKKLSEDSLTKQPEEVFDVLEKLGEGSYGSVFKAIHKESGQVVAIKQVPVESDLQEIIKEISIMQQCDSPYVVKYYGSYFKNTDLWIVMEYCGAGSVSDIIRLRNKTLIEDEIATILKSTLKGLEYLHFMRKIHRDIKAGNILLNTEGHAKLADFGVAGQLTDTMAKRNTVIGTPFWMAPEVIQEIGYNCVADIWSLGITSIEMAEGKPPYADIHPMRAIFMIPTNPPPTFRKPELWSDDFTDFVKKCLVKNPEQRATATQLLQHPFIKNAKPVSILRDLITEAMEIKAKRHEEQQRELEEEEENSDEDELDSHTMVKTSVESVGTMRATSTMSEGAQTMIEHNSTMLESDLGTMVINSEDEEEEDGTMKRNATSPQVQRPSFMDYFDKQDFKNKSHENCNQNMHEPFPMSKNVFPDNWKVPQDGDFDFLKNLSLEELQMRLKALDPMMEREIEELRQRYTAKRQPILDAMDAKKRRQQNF
Chain of MAPK10 (human) (P53779 whole entry, looked up): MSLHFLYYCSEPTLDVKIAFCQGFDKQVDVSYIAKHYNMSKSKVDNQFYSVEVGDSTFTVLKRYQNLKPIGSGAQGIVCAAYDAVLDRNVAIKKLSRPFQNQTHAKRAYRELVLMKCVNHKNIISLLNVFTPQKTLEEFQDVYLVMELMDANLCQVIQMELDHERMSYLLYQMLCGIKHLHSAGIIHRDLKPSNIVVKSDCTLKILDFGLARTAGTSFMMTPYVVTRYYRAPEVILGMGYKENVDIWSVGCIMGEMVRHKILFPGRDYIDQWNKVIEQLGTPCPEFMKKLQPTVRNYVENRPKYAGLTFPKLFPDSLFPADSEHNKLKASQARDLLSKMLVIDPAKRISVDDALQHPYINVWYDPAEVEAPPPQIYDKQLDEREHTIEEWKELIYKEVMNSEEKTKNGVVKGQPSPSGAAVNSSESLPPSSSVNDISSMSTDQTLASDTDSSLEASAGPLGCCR
Chain of MKNK1 (human) (Q9BUB5 whole entry, looked up): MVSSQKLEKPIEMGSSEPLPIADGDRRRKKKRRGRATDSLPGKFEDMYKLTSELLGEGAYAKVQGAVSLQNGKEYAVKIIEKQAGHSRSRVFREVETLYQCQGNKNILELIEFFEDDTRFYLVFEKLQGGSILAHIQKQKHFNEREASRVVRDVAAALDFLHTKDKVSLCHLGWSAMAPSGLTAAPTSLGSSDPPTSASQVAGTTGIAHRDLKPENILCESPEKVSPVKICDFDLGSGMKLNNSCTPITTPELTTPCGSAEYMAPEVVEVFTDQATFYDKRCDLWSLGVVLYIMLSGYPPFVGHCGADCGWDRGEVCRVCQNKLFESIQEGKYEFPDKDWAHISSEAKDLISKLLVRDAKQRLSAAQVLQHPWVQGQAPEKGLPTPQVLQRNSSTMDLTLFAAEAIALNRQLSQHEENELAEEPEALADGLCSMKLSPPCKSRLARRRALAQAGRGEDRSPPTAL
Chain of MAPK13 (human) (O15264 whole entry, looked up): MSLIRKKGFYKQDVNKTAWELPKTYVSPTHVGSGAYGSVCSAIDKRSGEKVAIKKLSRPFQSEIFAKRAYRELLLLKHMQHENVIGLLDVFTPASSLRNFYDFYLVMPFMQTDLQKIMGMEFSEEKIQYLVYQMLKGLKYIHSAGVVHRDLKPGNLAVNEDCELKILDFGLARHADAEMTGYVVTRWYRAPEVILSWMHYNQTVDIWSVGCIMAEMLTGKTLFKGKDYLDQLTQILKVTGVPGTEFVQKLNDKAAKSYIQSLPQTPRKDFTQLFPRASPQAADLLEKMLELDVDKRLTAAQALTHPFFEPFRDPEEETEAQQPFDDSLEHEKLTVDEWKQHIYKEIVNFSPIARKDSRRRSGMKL
Chain of MARK3 (human) (P27448 whole entry, looked up): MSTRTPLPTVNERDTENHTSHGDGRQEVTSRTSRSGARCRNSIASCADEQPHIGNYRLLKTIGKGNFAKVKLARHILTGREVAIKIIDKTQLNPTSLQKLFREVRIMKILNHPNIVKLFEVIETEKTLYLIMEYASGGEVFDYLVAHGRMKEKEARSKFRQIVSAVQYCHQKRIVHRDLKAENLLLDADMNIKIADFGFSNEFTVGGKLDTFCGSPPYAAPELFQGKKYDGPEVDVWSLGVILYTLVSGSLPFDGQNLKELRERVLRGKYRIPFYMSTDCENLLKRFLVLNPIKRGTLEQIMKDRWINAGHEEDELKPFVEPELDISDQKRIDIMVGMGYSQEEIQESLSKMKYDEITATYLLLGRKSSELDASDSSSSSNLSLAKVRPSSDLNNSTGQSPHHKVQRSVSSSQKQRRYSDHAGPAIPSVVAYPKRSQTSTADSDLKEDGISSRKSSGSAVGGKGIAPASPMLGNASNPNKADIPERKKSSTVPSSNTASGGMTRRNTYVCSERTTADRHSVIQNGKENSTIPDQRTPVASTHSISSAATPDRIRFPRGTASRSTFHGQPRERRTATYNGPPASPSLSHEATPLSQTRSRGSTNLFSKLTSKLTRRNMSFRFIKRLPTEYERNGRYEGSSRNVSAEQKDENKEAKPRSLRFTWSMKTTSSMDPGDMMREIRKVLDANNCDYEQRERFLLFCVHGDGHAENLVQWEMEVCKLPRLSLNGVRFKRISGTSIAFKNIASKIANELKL
Chain of FGFR1 (human) (P11362 whole entry, looked up): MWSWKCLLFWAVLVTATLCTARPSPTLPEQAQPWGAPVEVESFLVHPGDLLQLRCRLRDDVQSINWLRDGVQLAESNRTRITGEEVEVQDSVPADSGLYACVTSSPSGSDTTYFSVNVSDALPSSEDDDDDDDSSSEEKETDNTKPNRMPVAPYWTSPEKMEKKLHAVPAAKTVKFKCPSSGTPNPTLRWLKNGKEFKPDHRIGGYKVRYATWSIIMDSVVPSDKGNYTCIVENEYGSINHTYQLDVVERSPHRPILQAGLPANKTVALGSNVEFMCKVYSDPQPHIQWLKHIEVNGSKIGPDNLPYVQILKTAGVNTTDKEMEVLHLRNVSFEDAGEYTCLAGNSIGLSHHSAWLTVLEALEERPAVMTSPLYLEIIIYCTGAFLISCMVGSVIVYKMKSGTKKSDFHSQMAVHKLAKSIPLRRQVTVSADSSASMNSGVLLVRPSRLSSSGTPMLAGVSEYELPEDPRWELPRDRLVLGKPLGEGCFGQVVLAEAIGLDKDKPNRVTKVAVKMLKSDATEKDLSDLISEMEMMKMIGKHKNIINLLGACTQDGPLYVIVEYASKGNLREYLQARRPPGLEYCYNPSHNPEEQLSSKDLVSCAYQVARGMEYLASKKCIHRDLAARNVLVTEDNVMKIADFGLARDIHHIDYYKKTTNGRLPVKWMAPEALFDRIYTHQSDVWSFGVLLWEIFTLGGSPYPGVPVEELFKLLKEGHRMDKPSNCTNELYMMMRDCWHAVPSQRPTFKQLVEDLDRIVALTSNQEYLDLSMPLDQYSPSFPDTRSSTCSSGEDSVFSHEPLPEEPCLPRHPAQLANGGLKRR

## CC1=C(CO)C(=O)O[C@@H]([C@@H](C)[C@H]2CC[C@H]3[C@@H]4C[C@H]5O[C@]56[C@@H](O)C=CC(=O)[C@]6(C)C4CC[C@]23C)C1 (stereo not given in full)
PHKG1 (human); compound 0.1 µM
  residual activity: 110%
PHKG1 (human); compound 1.0 µM
  residual activity: 112%
PHKG1 (human); compound 10.0 µM
  residual activity: 105%
ROCK2 (rat); compound 0.1 µM
  residual activity: 103%
ROCK2 (rat); compound 1.0 µM
  residual activity: 107%
ROCK2 (rat); compound 10.0 µM
  residual activity: 112%
TAOK1 (human); compound 0.1 µM
  residual activity: 103%
TAOK1 (human); compound 1.0 µM
  residual activity: 113%
TAOK1 (human); compound 10.0 µM
  residual activity: 120%
YES1 (human); compound 0.1 µM
  residual activity: 99%
YES1 (human); compound 1.0 µM
  residual activity: 112%
BRSK2 (human); compound 0.1 µM
  residual activity: 99%
BRSK2 (human); compound 1.0 µM
  residual activity: 103%
BRSK2 (human); compound 10.0 µM
  residual activity: 77%
MAPK8 (human); compound 0.1 µM
  residual activity: 103%
MAPK8 (human); compound 1.0 µM
  residual activity: 102%
MAPK8 (human); compound 10.0 µM
  residual activity: 110%
HIPK1 (human); compound 0.1 µM
  residual activity: 110%
HIPK1 (human); compound 1.0 µM
  residual activity: 112%
HIPK1 (human); compound 10.0 µM
  residual activity: 101%
CAMKK2 (human); compound 0.1 µM
  residual activity: 115%
CAMKK2 (human); compound 1.0 µM
  residual activity: 115%
CAMKK2 (human); compound 10.0 µM
  residual activity: 99%
SRPK1 (human); compound 0.1 µM
  residual activity: 89%
SRPK1 (human); compound 1.0 µM
  residual activity: 86%
SRPK1 (human); compound 10.0 µM
  residual activity: 63%
DAPK1 (human); compound 0.1 µM
  residual activity: 108%
DAPK1 (human); compound 1.0 µM
  residual activity: 95%
DAPK1 (human); compound 10.0 µM
  residual activity: 108%
TBK1 (human); compound 1.0 µM
  residual activity: 107%
TBK1 (human); compound 10.0 µM
  residual activity: 93%
CHEK1 (human); compound 0.1 µM
  residual activity: 109%
CHEK1 (human); compound 1.0 µM
  residual activity: 114%
CHEK1 (human); compound 10.0 µM
  residual activity: 117%
MINK1 (human); compound 0.1 µM
  residual activity: 94%
MINK1 (human); compound 1.0 µM
  residual activity: 88%
MINK1 (human); compound 10.0 µM
  residual activity: 81%
PIM3 (human); compound 0.1 µM
  residual activity: 95%
PIM3 (human); compound 1.0 µM
  residual activity: 110%
PIM3 (human); compound 10.0 µM
  residual activity: 83%
GCK (human); compound 0.1 µM
  residual activity: 98%
GCK (human); compound 1.0 µM
  residual activity: 106%
GCK (human); compound 10.0 µM
  residual activity: 68%
STK3 (human); compound 0.1 µM
  residual activity: 123%
STK3 (human); compound 1.0 µM
  residual activity: 126%
STK3 (human); compound 10.0 µM
  residual activity: 129%
IGF1R (human); compound 0.1 µM
  residual activity: 105%
IGF1R (human); compound 1.0 µM
  residual activity: 123%
IGF1R (human); compound 10.0 µM
  residual activity: 113%
AURKB (human); compound 0.1 µM
  residual activity: 108%
AURKB (human); compound 1.0 µM
  residual activity: 86%
AURKB (human); compound 10.0 µM
  residual activity: 10%
LCK (mouse); compound 1.0 µM
  residual activity: 111%
LCK (mouse); compound 10.0 µM
  residual activity: 129%
[1]; compound 0.1 µM
  residual activity: 110%
[1]; compound 10.0 µM
  residual activity: 103%
CSNK2A1 (human); compound 0.1 µM
  residual activity: 79%
CSNK2A1 (human); compound 1.0 µM
  residual activity: 94%
CSNK2A1 (human); compound 10.0 µM
  residual activity: 94%
MAPK11 (human); compound 0.1 µM
  residual activity: 121%
MAPK11 (human); compound 10.0 µM
  residual activity: 128%
MAPK13 (human); compound 0.1 µM
  residual activity: 106%
MAPK13 (human); compound 1.0 µM
  residual activity: 110%
MAPK13 (human); compound 10.0 µM
  residual activity: 92%
DYRK1A (human); compound 0.1 µM
  residual activity: 92%
DYRK1A (human); compound 1.0 µM
  residual activity: 94%
DYRK1A (human); compound 10.0 µM
  residual activity: 100%
HIPK2 (human); compound 0.1 µM
  residual activity: 108%
HIPK2 (human); compound 1.0 µM
  residual activity: 113%
HIPK2 (human); compound 10.0 µM
  residual activity: 60%
DYRK3 (human); compound 0.1 µM
  residual activity: 103%
DYRK3 (human); compound 1.0 µM
  residual activity: 101%
DYRK3 (human); compound 10.0 µM
  residual activity: 78%
MKNK1 (human); compound 0.1 µM
  residual activity: 98%
MKNK1 (human); compound 1.0 µM
  residual activity: 100%
MKNK1 (human); compound 10.0 µM
  residual activity: 108%
MAPK10 (human); compound 0.1 µM
  residual activity: 122%
MAPK10 (human); compound 1.0 µM
  residual activity: 125%
MAPK10 (human); compound 10.0 µM
  residual activity: 136%
MARK3 (human); compound 0.1 µM
  residual activity: 99%
MARK3 (human); compound 1.0 µM
  residual activity: 114%
MARK3 (human); compound 10.0 µM
  residual activity: 118%
CaMK1 (human); compound 0.1 µM
  residual activity: 92%
CaMK1 (human); compound 1.0 µM
  residual activity: 84%
CaMK1 (human); compound 10.0 µM
  residual activity: 30%
FGFR1 (human); compound 0.1 µM
  residual activity: 98%
FGFR1 (human); compound 1.0 µM
  residual activity: 97%
FGFR1 (human); compound 10.0 µM
  residual activity: 94%
[2]; compound 0.1 µM
  residual activity: 100%
[2]; compound 1.0 µM
  residual activity: 96%
[2]; compound 10.0 µM
  residual activity: 86%
CLK2 (human); compound 0.1 µM
  residual activity: 88%
CLK2 (human); compound 1.0 µM
  residual activity: 102%
CLK2 (human); compound 10.0 µM
  residual activity: 94%
JAK2 JH1 JH2 (human); compound 0.1 µM
  residual activity: 98%
JAK2 JH1 JH2 (human); compound 1.0 µM
  residual activity: 98%
JAK2 JH1 JH2 (human); compound 10.0 µM
  residual activity: 103%
EPHB2 (human); compound 0.1 µM
  residual activity: 116%
EPHB2 (human); compound 1.0 µM
  residual activity: 102%
EPHB2 (human); compound 10.0 µM
  residual activity: 105%
